Key:
Experiment in all cases: relative viability (nuclei count vs DMSO), 5 days (fraction); higher = more cells survive
QS11 + Pemetrexed = compound: C1CC2=C(C1)C=C(C=C2)OC3=NC(=C4C(=N3)N(C=N4)CC5=CC=C(C=C5)C6=CC=CC=C6)N[C@@H](CC7=CC=CC=C7)CO [QS11] + Nc1nc2[nH]cc(CCc3ccc(C(=O)N[C@@H](CCC(=O)O)C(=O)O)cc3)c2c(=O)[nH]1 [Pemetrexed] (partner 0.2 µM)
Outline: (§1)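 Relative viability equals treated-well nuclei counts divided by vehicle-well nuclei counts. Counts came from 4× images of lung cancer cell lines grown in 1536-well plates for 5 days after pin-tool dosing on the day after seeding. Dosing used one drug alone or a fixed anchor-drug dose plus five library-drug doses (not always all listed) in √10 steps, and values are medians of duplicate plates.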

AZ628 + Foretinib = compound: CC1=C(C=C(C=C1)NC(=O)C2=CC(=CC=C2)C(C)(C)C#N)NC3=CC4=C(C=C3)N=CN(C4=O)C [AZ628] + COc1cc2c(Oc3ccc(NC(=O)C4(C(=O)Nc5ccc(F)cc5)CC4)cc3F)ccnc2cc1OCCCN1CCOCC1 [Foretinib] (partner 0.25 µM)
Outline: as §1

AZ628 + Pictilisib = compound: CC1=C(C=C(C=C1)NC(=O)C2=CC(=CC=C2)C(C)(C)C#N)NC3=CC4=C(C=C3)N=CN(C4=O)C [AZ628] + CS(=O)(=O)N1CCN(Cc2cc3nc(-c4cccc5[nH]ncc45)nc(N4CCOCC4)c3s2)CC1 [Pictilisib] (partner 1 µM)
Outline: as §1

Darinaparsin + Alpelisib = compound: C[As](C)SC[C@H](NC(=O)CC[C@H](N)C(=O)O)C(=O)NCC(=O)O [Darinaparsin] + Cc1nc(NC(=O)N2CCC[C@H]2C(N)=O)sc1-c1ccnc(C(C)(C)C(F)(F)F)c1 [Alpelisib] (partner 2 µM)
Outline: as §1

Cell Line	relative viability (QS11 + Pemetrexed; first compound 0.08 µM)	relative viability (QS11 + Pemetrexed; first compound 0.253 µM)	relative viability (QS11 + Pemetrexed; first compound 2.53 µM)	relative viability (QS11 + Pemetrexed; first compound 8 µM)	relative viability (AZ628 + Foretinib; first compound 0.08 µM)	relative viability (AZ628 + Foretinib; first compound 0.253 µM)	relative viability (AZ628 + Foretinib; first compound 0.8 µM)	relative viability (AZ628 + Foretinib; first compound 2.53 µM)	relative viability (AZ628 + Foretinib; first compound 8 µM)	relative viability (AZ628 + Pictilisib; first compound 0.08 µM)	relative viability (AZ628 + Pictilisib; first compound 0.253 µM)	relative viability (AZ628 + Pictilisib; first compound 0.8 µM)	relative viability (AZ628 + Pictilisib; first compound 2.53 µM)	relative viability (AZ628 + Pictilisib; first compound 8 µM)	relative viability (Darinaparsin + Alpelisib; first compound 0.08 µM)	relative viability (Darinaparsin + Alpelisib; first compound 0.8 µM)	relative viability (Darinaparsin + Alpelisib; first compound 2.53 µM)	relative viability (Darinaparsin + Alpelisib; first compound 8 µM)	relative viability (QS11 + Pemetrexed; first compound 0.8 µM)
LCLC-103H	0.454	0.475	0.463	0.446	0.724	0.753	0.802	0.729	0.853	0.554	0.587	0.632	0.55	0.583	0.945	0.982	0.915	1.11	
LK-2	0.241	0.318	0.27	0.284	1.42	0.985	1.09	1.28	0.587	0.577	0.824	0.443	0.481	0.311	1.37		1.31	1.42	0.267
LOU-NH91	0.347	0.369	0.457	0.306	0.956	0.961	0.956	0.95	0.821	0.582	0.491	0.492	0.501	0.452	0.703	0.718	0.749	0.68	0.351
LU99A	0.169	0.172	0.169	0.168	0.862	0.767	0.833	0.861	0.431	0.274	0.306	0.362	0.331	0.205	0.592	0.52	0.457	0.606	0.173
LXF-289	0.873	0.931	0.9	0.876	1	0.942	0.879	0.961	0.641	0.779	0.712	0.754	0.654	0.401	1.11	1.06	0.851	1.16	0.761
NCI-H23	0.766	0.582	0.657	0.689	0.989	0.967	0.768	0.773	0.588	0.407	0.319	0.261	0.312	0.246	0.926	0.582	0.711	0.681	0.694
NCI-H322M	0.556	0.59	0.822	0.735	1.05	0.985	0.952	1.02	0.829	0.554	0.473	0.482	0.469	0.412	0.89	0.692	0.632	0.787	0.66
NCI-H358	0.167	0.175	0.186	0.168	0.538	0.472	0.373	0.466	0.323	0.341	0.289	0.286	0.308	0.349	0.922	0.87	0.817	0.994	0.146
NCI-H441	0.252	0.275	0.277	0.282	0.94	0.962	0.896	0.901	0.846	0.417	0.45	0.444	0.403	0.283	0.774	0.635	0.809	0.893	0.233
NCI-H460	0.056	0.0683	0.0792	0.0751	0.978	0.996	0.974	1.02	0.54	0.323	0.25	0.254	0.269	0.127	0.566	0.549	0.417	0.821	0.0585
NCI-H520	0.791	0.871	0.783	0.488	0.834	0.7	0.76	0.802	0.631	0.312	0.313	0.273	0.212	0.204	1.07	0.712	0.885	1.04	0.863
NCI-H596	0.456	0.468	0.528	0.476	0.867	1.05	0.913	0.905	0.991	0.36	0.383	0.382	0.376	0.42	0.511	0.621	0.421	0.602	0.507
NCI-H647	0.2	0.146	0.159	0.202	1.02	1.28	1.36	1.29	1.05	0.385	0.163	0.313	0.247	0.27	1.57	1.16	0.827	1.31	0.155
NCI-H650	0.834	0.819	0.841	0.839	1.02	1.21	1.19	1.14	1.13	1.07	1	1.06	1.12	0.732	1.17	1.15	1.27	1.31	0.83
NCI-H661	1.03	0.911	0.953	0.857	1.12	0.974	0.846	0.866	0.832	0.401	0.312	0.302	0.353	0.331	0.632	0.692	0.683	0.668	0.794

Reference: the supplement of paper PMC10307832
